# Values quoted from earlier work, collected in US11352331B2, “Crystal and salt of 4-(naphthalen-1-yl)-4H-1,2,4-triazole compound and preparation method therefor” (MEDSHINE DISCOVERY INC., priority 2017, dated 2022).
# Where two headings read alike, the source gives them in different places.
# Columns and labels:
# [1] = human, 0-144 hour, after lesinurad, cited from earlier work
# [2] = Liver microsomes, Monkey; cited from earlier work
# Liver cells [3] = conditions: Rat; cited from earlier work
# Liver cells [4] = conditions: Dog; cited from earlier work
# Liver cells [5] = conditions: Monkey; cited from earlier work
# Liver cells [6] = conditions: Human; cited from earlier work
Structure (SMILES),Percentage of the administered dose ([1]; Faeces),Percentage of the administered dose ([1]; Urine),Amount of lesinurad and metabolites (Total 100) [2],Amount of lesinurad and metabolites (Total 100) (Liver cells [3]),Amount of lesinurad and metabolites (Total 100) (Liver cells [4]),Amount of lesinurad and metabolites (Total 100) (Liver cells [5]),Amount of lesinurad and metabolites (Total 100) (Liver cells [6])
O=C(O)CSc1nncn1-c1ccc(C2CC2)c2ccccc12 [Compound M2],4.8%,0.3%,,,,,
O=C(O)CSc1nnc(Br)n1-c1ccc(C2(O)CC2)c2ccccc12 [Compound M3],0.3%,12.0%,7.9%,not detected,not detected,1.45%,2.24%
O=C(O)CSc1nnc(Br)n1-c1ccc(C2CC2)c2c1C=CC(O)C2O (stereo not shown) [Compound M4],5.0%,15.7%,,not detected,not detected,0.47%,5.69%
O=C(O)CSc1nncn1-c1ccc(C2(O)CC2)c2ccccc12 [Compound M5],3.6%,,,,,,
